The results in this text go back to ChEMBL document CHEMBL4371007, “Biased Ligands of G Protein-Coupled Receptors (GPCRs): Structure-Functional Selectivity Relationships (SFSRs) and Therapeutic Potential” (J Med Chem, 2018).

Where a SMILES comes first, the peptide text is derived from it. Bridges are numbered along the chain shown (N, C = ends). [ ]: non-standard residue; d: D form. The star is where a group is joined. X1 = C[C@@H](NC(=O)[C@@H]1CCCN1C(=O)[C@H](Cc1cnc[nH]1)NC[C@H](CCCCN)N*)C(=O)O; Sar = CNCC(=O)O

What is called EC50 is the midpoint of the concentration-response curve. Usually Emax stands for the greatest response seen or fitted, relative to the assay's reference. The term pKb denotes the negative decadic logarithm of the Kb, by convention in mol/L. Low readings indicate a high Kb, high ones a low Kb.

The target in assay [1] is T1, Adenosine receptor A1 (Homo sapiens) (UniProt P30542).
T1 sequence (whole entry): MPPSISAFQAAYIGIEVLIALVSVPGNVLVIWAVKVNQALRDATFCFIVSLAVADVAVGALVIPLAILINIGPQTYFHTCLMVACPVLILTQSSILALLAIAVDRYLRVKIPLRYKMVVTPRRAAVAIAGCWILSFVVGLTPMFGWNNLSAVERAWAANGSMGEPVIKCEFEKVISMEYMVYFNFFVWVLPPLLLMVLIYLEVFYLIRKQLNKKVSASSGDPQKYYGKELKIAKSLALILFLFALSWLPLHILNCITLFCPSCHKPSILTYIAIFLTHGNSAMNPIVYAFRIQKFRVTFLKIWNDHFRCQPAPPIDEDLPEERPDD

Assay [2] concerns the target T1, Adenosine receptor A1 (Homo sapiens). Briefly: Agonist activity at adenosine A1 receptor (unknown origin) expressed in FlpIn-CHO cells assessed as increase in ERK1/2 phosphorylation. It is filed as cell-based.
The target in assay [3] is T2, Apelin receptor (Homo sapiens, UniProt P35414).
T2 sequence (P35414 whole entry): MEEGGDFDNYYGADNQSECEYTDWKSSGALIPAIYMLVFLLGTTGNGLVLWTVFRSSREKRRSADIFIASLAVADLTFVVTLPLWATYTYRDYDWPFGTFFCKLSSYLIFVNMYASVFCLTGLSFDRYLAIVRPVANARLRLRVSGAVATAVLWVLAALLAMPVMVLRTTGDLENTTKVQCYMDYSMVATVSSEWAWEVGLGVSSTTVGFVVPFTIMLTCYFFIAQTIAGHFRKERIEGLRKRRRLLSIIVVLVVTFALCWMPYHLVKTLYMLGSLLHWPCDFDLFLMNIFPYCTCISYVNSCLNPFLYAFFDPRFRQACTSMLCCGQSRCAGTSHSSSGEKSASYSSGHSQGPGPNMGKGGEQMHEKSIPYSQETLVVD
Briefly: Agonist activity at GFP10 tagged human APJ receptor expressed in HEK293 cells harboring Rluc2-Galphai1/GFP10-Ggamma/Gbeta1 after 5 mins by BRET assay. It is filed as cell-based.

Assay [4] addresses T2, Apelin receptor. Briefly: Agonist activity at human APJ receptor expressed in HEK293 cells harboring Rluc2-beta-arrestin2 assessed as increase in beta-arrestin2 recruitment after 30 mins by BRET-based luciferase reporter gene assay. It is filed as cell-based.
The target in assay [5] is T2, Apelin receptor. Kind of assay: Agonist activity at GFP10 tagged human APJ receptor expressed in HEK293 cells harboring Rluc2-beta-arrestin1 assessed as increase in beta-arrestin1 recruitment after 30 mins by BRET-based luciferase reporter gene assay. It is filed as cell-based. For orientation: Arrestin recruitment assays detect the binding of arrestin to an activated receptor.

For assay [6], the target named is T2, Apelin receptor. Kind of assay: Agonist activity at GFP10 tagged human APJ receptor expressed in HEK293 cells harboring Rluc2-Galpha0A/GFP10-Ggamma/Gbeta1 after 5 mins by BRET assay. It is filed as cell-based. On the technique in general: BRET reads energy transfer from a luciferase to a nearby fluorophore.
Assay [7] addresses T3, D(2) dopamine receptor (Homo sapiens, UniProt P14416). Briefly: Agonist activity at human dopamine D2long receptor (unknown origin) expressed in HEK293T cells co-expressing TEV fused-beta-Arrestin2 and GRK2 assessed as increase in beta-arrestin-2 recruitment at 1 uM after overnight incubation by Tango assay relative to control. It is filed as cell-based.
Assay [8] addresses T3, D(2) dopamine receptor. Briefly: Agonist activity at human dopamine D2long receptor (unknown origin) expressed in HEK293T cells co-expressing TEV fused-beta-Arrestin2 and GRK2 assessed as increase in beta-arrestin-2 recruitment after overnight incubation by Tango assay. It is filed as cell-based.
In assay [9] the target is T3, D(2) dopamine receptor. Kind of assay: Ratio of EC50 for dopamine D2 receptor (unknown origin) expressed in HEK293T cells co-expressing luciferase based cAMP biosensor assessed as inhibition of forskolin-mediated cAMP accumulation to EC50 for human dopamine D2long receptor (unknown origin) expressed in HEK293T cells co-expressing TEV fused-beta-Arrestin2 and GRK2 assessed as increase in beta-arrestin-2 recruitment. It is filed as functional, cell-based.

In assay [10] the target is T3, D(2) dopamine receptor. Briefly: Agonist activity at dopamine D2 receptor (unknown origin) expressed in HEK293T cells co-expressing luciferase based cAMP biosensor assessed as inhibition of forskolin-mediated cAMP accumulation at 1 uM after 15 mins by microbeta luminescence counting assay relative to control. It is filed as functional, cell-based. On the technique in general: Cyclic AMP is a second messenger, typically raised through Gs and lowered through Gi signalling.

Assay [11] deals with T3, D(2) dopamine receptor. Kind of assay: Agonist activity at dopamine D2 receptor (unknown origin) expressed in HEK293T cells co-expressing luciferase based cAMP biosensor assessed as inhibition of forskolin-mediated cAMP accumulation after 15 mins by microbeta luminescence counting assay. It is filed as functional, cell-based.
Assay [12] has as its target T4, Type-1 angiotensin II receptor (Homo sapiens, UniProt P30556).
T4 sequence (P30556 whole entry): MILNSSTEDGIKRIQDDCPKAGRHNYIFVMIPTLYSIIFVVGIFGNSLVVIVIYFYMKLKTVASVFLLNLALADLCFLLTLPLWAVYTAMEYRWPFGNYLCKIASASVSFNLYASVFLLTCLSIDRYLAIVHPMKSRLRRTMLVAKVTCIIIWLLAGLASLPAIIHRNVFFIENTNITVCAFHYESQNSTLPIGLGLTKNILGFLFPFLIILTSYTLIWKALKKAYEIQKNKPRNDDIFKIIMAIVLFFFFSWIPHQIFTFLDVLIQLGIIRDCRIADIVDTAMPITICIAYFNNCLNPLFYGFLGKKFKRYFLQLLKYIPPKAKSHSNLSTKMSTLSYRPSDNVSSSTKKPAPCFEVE
Kind of assay: Agonist activity at human AT1 receptor assessed as increase in beta-arrestin recruitment by chemiluminescent assay.

Assay [13] addresses Metabotropic glutamate receptor 5 (Homo sapiens, UniProt P41594). Kind of assay: Agonist activity at mGlu5 receptor (unknown origin) expressed in CHO cells assessed as increase in Gq-mediated PI hydrolysis after 45 mins by yttrium scintillation proximity assay. It is filed as cell-based.
The target of assay [14] is T5, Kappa-type opioid receptor (Rattus norvegicus, UniProt P34975). Kind of assay: Agonist activity at GFP-tagged rat kappa opioid receptor expressed in HEK293 cells assessed as increase in beta-arrestin mediated p38 phosphorylation after 5 mins by Western blot analysis. It is filed as cell-based.
T5 sequence (P34975 whole entry): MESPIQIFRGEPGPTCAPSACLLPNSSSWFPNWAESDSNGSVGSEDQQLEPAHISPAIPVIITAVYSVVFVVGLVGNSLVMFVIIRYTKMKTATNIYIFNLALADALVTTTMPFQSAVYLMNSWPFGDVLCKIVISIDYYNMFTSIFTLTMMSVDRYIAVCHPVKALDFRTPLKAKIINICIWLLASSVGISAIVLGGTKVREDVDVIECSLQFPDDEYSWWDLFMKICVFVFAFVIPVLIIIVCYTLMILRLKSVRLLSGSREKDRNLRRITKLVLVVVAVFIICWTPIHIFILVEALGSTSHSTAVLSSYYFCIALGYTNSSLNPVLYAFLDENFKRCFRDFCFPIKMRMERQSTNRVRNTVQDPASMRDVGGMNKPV
Assay [15] has as its target T5, Kappa-type opioid receptor. Kind of assay: Agonist activity at GFP-tagged rat kappa opioid receptor expressed in HEK293 cells assessed as increase in ERK1/2 phosphorylation after 5 mins by Western blot analysis. It is filed as cell-based.
Assay [16] deals with T6, Endothelin-1 receptor (Homo sapiens) (UniProt P25101).
T6 sequence (whole entry): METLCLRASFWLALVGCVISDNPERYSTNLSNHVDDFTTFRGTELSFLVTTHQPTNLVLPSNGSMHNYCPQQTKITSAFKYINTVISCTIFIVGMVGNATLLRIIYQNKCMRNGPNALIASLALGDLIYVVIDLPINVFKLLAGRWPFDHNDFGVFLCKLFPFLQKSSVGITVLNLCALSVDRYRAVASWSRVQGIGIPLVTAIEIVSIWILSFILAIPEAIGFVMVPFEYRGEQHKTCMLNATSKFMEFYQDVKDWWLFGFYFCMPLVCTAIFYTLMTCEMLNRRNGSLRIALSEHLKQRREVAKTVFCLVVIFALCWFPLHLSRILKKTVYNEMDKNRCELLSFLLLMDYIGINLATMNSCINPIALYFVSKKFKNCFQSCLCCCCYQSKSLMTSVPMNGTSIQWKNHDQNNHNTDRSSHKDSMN

Assay [17] deals with T7, Endothelin receptor type B (Homo sapiens) (UniProt P24530).
T7 sequence (whole entry): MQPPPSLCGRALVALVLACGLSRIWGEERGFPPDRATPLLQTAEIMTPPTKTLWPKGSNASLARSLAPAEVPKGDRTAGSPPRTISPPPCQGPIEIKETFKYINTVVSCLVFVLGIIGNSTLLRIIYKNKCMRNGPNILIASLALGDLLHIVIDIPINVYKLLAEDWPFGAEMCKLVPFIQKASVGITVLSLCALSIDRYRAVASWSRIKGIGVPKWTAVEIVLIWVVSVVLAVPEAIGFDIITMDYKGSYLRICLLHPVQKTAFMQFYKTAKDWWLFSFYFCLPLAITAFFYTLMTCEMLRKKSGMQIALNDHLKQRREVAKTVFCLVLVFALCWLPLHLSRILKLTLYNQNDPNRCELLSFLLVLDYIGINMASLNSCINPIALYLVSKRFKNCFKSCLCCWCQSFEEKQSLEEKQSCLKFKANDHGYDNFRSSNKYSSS

The target of assay [18] is T2, Apelin receptor. Briefly: Induction of human APJ receptor internalization by cell based assay.
The target of assay [19] is T2, Apelin receptor. Kind of assay: Agonist activity at human APJ receptor by saphenous vein contraction assay.
In assay [20] the target is T2, Apelin receptor. Kind of assay: Agonist activity at human APJ receptor assessed as increase in beta-arrestin recruitment.
Assay [21] concerns the target T8, Metabotropic glutamate receptor 5 (Rattus norvegicus, UniProt P31424). Kind of assay: Positive allosteric modulation of rat mGlu5 receptor expressed in HEK293 cells assessed as increase in calcium mobilization after 60 secs in presence of glutamate by Fluo-4 AM dye-based fluorescence assay. It is filed as functional, cell-based.
In a further assay the test system is CHO. Kind of assay: Cytoprotection against glutamate-induced cell death in CHO cells assessed as increase in cell viability by colorimetric assay. It is filed as functional, cell-based. The settings on record: Cricetulus griseus.
Assay [22] deals with T8, Metabotropic glutamate receptor 5. Kind of assay: Positive allosteric modulation of rat mGlu5 receptor expressed in HEK293 cells assessed as increase in calcium mobilization. It is filed as functional, cell-based.

T3 sequence (P14416 whole entry, the tested form may be a part): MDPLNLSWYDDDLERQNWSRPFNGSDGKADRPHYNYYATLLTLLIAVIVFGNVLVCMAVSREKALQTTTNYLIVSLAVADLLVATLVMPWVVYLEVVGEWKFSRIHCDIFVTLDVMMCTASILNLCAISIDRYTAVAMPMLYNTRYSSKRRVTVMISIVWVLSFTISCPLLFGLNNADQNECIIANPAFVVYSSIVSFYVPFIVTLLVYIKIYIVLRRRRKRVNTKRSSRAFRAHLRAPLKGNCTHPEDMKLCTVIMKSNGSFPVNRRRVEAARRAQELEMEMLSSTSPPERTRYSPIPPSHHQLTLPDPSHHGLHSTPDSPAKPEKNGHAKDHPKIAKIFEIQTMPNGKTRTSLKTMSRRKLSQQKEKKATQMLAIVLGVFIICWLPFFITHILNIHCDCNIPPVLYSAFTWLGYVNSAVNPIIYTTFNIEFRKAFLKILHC
T8 sequence (P31424 whole entry): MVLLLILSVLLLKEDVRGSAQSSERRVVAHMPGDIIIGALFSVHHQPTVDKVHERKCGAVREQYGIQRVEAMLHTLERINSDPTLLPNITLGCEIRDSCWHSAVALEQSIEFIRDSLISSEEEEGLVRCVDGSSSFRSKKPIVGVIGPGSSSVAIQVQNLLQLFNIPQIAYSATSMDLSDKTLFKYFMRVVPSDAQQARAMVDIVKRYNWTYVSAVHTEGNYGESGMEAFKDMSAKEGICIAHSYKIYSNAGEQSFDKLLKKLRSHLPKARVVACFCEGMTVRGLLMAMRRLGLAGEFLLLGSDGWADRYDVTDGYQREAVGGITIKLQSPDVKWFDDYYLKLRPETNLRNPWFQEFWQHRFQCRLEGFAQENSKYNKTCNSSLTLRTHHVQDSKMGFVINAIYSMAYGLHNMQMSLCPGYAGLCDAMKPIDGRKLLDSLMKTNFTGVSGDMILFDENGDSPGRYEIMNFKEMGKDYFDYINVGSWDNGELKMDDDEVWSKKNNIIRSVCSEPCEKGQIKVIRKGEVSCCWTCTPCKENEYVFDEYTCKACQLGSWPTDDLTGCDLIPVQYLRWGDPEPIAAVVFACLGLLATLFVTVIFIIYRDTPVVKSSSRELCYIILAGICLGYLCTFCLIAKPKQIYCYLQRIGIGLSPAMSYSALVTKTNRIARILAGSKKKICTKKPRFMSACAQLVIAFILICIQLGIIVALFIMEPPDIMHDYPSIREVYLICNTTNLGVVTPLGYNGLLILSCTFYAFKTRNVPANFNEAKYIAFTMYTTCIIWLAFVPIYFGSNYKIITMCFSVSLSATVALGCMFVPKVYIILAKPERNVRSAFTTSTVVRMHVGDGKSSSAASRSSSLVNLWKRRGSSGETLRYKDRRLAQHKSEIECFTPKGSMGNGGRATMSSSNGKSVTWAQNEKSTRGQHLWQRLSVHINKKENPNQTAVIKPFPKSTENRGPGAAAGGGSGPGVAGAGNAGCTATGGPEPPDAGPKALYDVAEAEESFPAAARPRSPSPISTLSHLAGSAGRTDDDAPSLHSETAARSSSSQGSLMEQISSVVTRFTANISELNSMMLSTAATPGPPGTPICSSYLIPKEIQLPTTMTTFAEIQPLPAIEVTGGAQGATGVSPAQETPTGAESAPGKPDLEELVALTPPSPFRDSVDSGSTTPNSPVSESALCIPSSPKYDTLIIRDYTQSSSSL
Chain of Metabotropic glutamate receptor 5 (Homo sapiens, UniProt P41594) (P41594 whole entry): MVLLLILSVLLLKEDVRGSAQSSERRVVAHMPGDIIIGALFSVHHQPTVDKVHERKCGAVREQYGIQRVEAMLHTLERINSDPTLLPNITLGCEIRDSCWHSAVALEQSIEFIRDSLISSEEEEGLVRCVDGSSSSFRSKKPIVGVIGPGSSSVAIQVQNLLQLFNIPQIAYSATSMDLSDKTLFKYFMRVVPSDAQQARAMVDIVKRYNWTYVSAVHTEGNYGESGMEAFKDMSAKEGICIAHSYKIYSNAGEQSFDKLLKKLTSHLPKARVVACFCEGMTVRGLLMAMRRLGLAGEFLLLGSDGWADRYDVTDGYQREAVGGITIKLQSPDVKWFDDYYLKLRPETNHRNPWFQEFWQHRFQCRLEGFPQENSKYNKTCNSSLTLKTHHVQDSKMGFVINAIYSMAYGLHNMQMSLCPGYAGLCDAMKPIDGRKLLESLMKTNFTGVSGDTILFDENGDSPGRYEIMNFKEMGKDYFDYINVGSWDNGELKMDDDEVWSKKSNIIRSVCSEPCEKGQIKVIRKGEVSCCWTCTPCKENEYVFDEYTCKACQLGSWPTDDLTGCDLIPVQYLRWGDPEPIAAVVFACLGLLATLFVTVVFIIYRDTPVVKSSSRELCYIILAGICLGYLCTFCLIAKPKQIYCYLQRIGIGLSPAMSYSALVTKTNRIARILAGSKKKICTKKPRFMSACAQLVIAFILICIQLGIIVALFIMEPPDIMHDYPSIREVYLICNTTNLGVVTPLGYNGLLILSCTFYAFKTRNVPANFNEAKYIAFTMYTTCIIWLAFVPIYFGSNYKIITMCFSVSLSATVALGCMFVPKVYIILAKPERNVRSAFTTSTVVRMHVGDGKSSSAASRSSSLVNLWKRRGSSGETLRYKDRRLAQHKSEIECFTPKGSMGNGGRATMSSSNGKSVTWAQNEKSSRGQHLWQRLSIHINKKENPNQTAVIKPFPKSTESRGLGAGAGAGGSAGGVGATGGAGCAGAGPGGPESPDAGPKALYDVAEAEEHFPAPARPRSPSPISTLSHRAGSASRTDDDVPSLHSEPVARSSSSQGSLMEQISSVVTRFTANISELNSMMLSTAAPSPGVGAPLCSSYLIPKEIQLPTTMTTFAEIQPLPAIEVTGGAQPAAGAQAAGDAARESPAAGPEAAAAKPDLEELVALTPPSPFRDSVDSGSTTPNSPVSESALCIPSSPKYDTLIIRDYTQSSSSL

Regarding `C[C@H](Cc1ccccc1)Nc1ncnc2c1ncn2[C@@H]1O[C@H](CO)[C@@H](O)[C@H]1O`, the log(Tau/KA) in assay [1] came out at 8.96; in [2] it was 9.5.

Consider `CC(C)C[C@H](NC(=O)[C@H](CCCCN)NC(=O)[C@@H]1CCCN1C(=O)[C@@H](N)CCCCN)C(=O)N[C@@H](CO)C(=O)N[C@@H]1CC=CCC[C@@H](C(=O)N[C@@H](Cc2ccc(OCc3ccccc3)cc2)C(=O)O)NC(=O)[C@@H]2CCCN2C(=O)CNC(=O)[C@H](CCCCN)NC1=O`, for which the EC50 at Apelin receptor [3] is 56 nM; on Apelin receptor [4], greater than 10000 nM; at Apelin receptor [5] it was greater than 10000 nM; at Apelin receptor [6], 50 nM.

In the case of `Cc1cc2c(N3CCN(CCCCOc4ccc5c(c4)NC(=O)CC5)CC3)cccc2n1C`, the Emax at D(2) dopamine receptor [7] was 78%; at D(2) dopamine receptor [10], 60%. Besides, the EC50 on D(2) dopamine receptor [8] stood at 2.9 nM; on D(2) dopamine receptor [11] it was 23 nM. At D(2) dopamine receptor [9], the Ratio EC50 amounted to 20.

`CC[C@H](C)[C@H](NC(=O)[C@@H](NC(=O)[C@H](CCCNC(=N)N)NC(=O)CNC)C(C)C)C(=O)N[C@@H](CCCCN)CN[C@@H](Cc1cnc[nH]1)C(=O)N1CCC[C@H]1C(=O)N[C@H](C)C(=O)O` (H-[Sar]RVI-X1): the EC50 in assay [12] is 17 nM.

Turning to `N[C@@H](Cn1oc(=O)[nH]c1=O)C(=O)O` [QUISQUALATE], in [13], the EC50 is 630 nM.

On to `CN(C(=O)/C=C/c1ccoc1)[C@@H]1CC[C@@]2(O)[C@H]3Cc4ccc(O)c5c4[C@@]2(CCN3CC2CC2)[C@H]1O5` [NALFURAFINE], for which the EC50 in assay [14] was 5.2 nM; in assay [15] it was 0.5 nM.

As for `COc1ccccc1Oc1c(NS(=O)(=O)c2ccc(C(C)(C)C)cc2)nc(-c2ncccn2)nc1OCCO`, the pKb in [16] amounted to 8.01; in [17] it was 6.15.

In the case of `CSCC[C@H](NC(=O)[C@@H]1CCCN1C(=O)CNC(=O)[C@H](CCCCN)NC(=O)[C@H](Cc1cnc[nH]1)NC(=O)[C@@H]1CSSC[C@H](N)C(=O)N[C@@H](CCCNC(=N)N)C(=O)N2CCC[C@H]2C(=O)N[C@@H](CCCNC(=N)N)C(=O)N[C@@H](CC(C)C)C(=O)N1)C(=O)N1CCC[C@H]1C(=O)N[C@@H](Cc1ccccc1)C(=O)O` (H-CRPRLCHKGPMPF-OH; disulfide 1-6), the EC50 on Apelin receptor [18] is 692 nM; at Apelin receptor [19], 0.288 nM; at Apelin receptor [20], 2140 nM.

With `O=C(Nc1ccc(Cl)cc1CN1C(=O)c2cccc(F)c2C1=O)c1ccccn1`, in [21], the concentration for a half-maximal effect (EC50) was found to be 214 nM.

For `N[C@@H](CCC(=O)O)C(=O)O` [GLUTAMIC ACID], in the assay on CHO, the EC50 was 153000 nM.

For the molecule `O=C(c1ccc(F)cc1)N1CCc2nc(COc3ccccc3)oc2C1`, the EC50 in assay [22] turned out to be 235 nM.
